According to ChEMBL document CHEMBL3779770, “Synthesis, biological evaluation and molecular docking study of some novel indole and pyridine based 1,3,4-oxadiazole derivatives as potential antitubercular agents” (Bioorg Med Chem Lett, 2016):
In brackets after ≈: the same amount, converted by molar mass.

How the values were obtained:
Escherichia coli = experiment: Antibacterial activity against Escherichia coli NCIM 2688 after 8 hrs; type: functional, organism-based; settings: NCIM 2688, 8 h
Pseudomonas fluorescens = experiment: Antibacterial activity against Pseudomonas fluorescens NCIM 2036 after 8 hrs; type: functional, organism-based; settings: NCIM 2036, 8 h
Staphylococcus aureus = experiment: Antibacterial activity against Staphylococcus aureus NCIM 2010 after 12 hrs; type: functional, organism-based; settings: NCIM 2010, 12 h
Bacillus subtilis = experiment: Antibacterial activity against Bacillus subtilis NCIM 2079 after 12 hrs; type: functional, organism-based; settings: NCIM 2079, 12 h
[1] = tested on: Mycobacterium tuberculosis; experiment: Antitubercular activity against active state Mycobacterium tuberculosis H37Ra assessed as viable cells after 8 days by XTT reduction menadione assay; type: functional, organism-based; settings: 192 h
[2] = tested on: Mycobacterium tuberculosis; experiment: Antitubercular activity against dormant state Mycobacterium tuberculosis H37Ra assessed as viable cells after 12 days by XTT reduction menadione assay; type: functional, organism-based; settings: 288 h
[3] = (§1) Cytotoxicity against human HeLa cells after 72 hrs by MTT assay; type: cell-based; settings: HeLa cells
HeLa = experiment: as §1; type: cell-based; settings: hela, 72 h
[4] = (§2) Cytotoxicity against human A549 cells after 48 hrs by MTT assay; type: cell-based; settings: A549 cells
A549 = experiment: as §2; type: cell-based; settings: a549, 48 h
[5] = Cytotoxicity against human PANC1 cells after 48 hrs by MTT assay; type: cell-based, PANC-1; settings: for GI50 at 48 h: PANC1 cells; for GI90: panc-1, 48 h

Row | SMILES | IC50 (Escherichia coli) [µg/mL] | MIC (Escherichia coli) [µg/mL] | IC50 (Pseudomonas fluorescens) [µg/mL] | MIC (Pseudomonas fluorescens) [µg/mL] | IC50 (Staphylococcus aureus) [µg/mL] | MIC (Staphylococcus aureus) [µg/mL] | IC50 (Bacillus subtilis) [µg/mL] | MIC (Bacillus subtilis) [µg/mL] | IC50 [1] [µg/mL] | MIC [1] [µg/mL] | IC50 [2] [µg/mL] | MIC [2] [µg/mL] | GI50 at 72 h [3] [µg/mL] | GI90 (HeLa) [µg/mL] | GI50 at 48 h [4] [µg/mL] | GI90 (A549) [µg/mL] | GI50 at 48 h [5] [µg/mL] | GI90 [5] [µg/mL]
1 | O=C(/C=C\c1cccc(O)c1)N1N=C(c2ccncc2)OC1c1c[nH]c2ccccc12 (configuration not stated) | 16.6 (≈ 40.6 µM) | 49.2 (≈ 120 µM) | 17.4 (≈ 42.5 µM) | 82.8 (≈ 202 µM) | 18.2 (≈ 44.5 µM) | 84.4 (≈ 206 µM) | 19.8 (≈ 48.4 µM) | 121 (≈ 295 µM) | > 30 | > 30 | > 30 | > 30 | > 30 | > 30 | > 30 | > 30 | > 30 | > 30
2 | O=C(/C=C\c1ccccc1)N1N=C(c2ccncc2)OC1c1c[nH]c2ccccc12 (configuration not stated) | 10.3 (≈ 26 µM) | 50.5 (≈ 128 µM) | 11.1 (≈ 28 µM) | 51.3 (≈ 130 µM) | 11.9 (≈ 30.1 µM) | 42.2 (≈ 107 µM) | 12.7 (≈ 32.1 µM) | 45.4 (≈ 115 µM) | 28.7 (≈ 72.8 µM) | > 30 | > 30 | > 30 | > 30 | > 30 | > 30 | > 30 | > 30 | > 30
3 | O=C(/C=C\c1cccc(Br)c1)N1N=C(c2ccncc2)OC1c1c[nH]c2ccccc12 (configuration not stated) | 2.39 (≈ 5.05 µM) | 18.2 (≈ 38.6 µM) | 3.19 (≈ 6.74 µM) | 19.1 (≈ 40.2 µM) | 2.01 (≈ 4.25 µM) | 21.1 (≈ 44.5 µM) | 4.74 (≈ 10 µM) | 22.6 (≈ 47.9 µM) | > 30 | > 30 | > 30 | > 30 | > 30 | > 30 | > 30 | > 30 | > 30 | > 30
4 | COc1ccc(/C=C\C(=O)N2N=C(c3ccncc3)OC2c2c[nH]c3ccccc23)cc1 (configuration not stated) | 14 (≈ 33 µM) | 182 (≈ 429 µM) | 15.7 (≈ 37 µM) | 101 (≈ 239 µM) | 7.72 (≈ 18.2 µM) | 88.1 (≈ 208 µM) | 15.7 (≈ 37 µM) | 156 (≈ 369 µM) | > 30 | > 30 | > 30 | > 30 | > 30 | > 30 | > 30 | > 30 | > 30 | > 30
5 | CC(=O)O[C@H]1C(=O)[C@@]2(C)[C@H]([C@H](OC(=O)c3ccccc3)[C@]3(O)C[C@H](OC(=O)[C@H](O)[C@@H](NC(=O)c4ccccc4)c4ccccc4)C(C)=C1C3(C)C)[C@]1(OC(C)=O)CO[C@@H]1C[C@@H]2O [PACLITAXEL] | – | – | – | – | – | – | – | – | – | – | – | – | 0.005 (≈ 0.00586 µM) | 0.075 (≈ 0.0878 µM) | 0.12 (≈ 0.141 µM) | 5.88 (≈ 6.89 µM) | 0.0038 (≈ 0.00445 µM) | 0.078 (≈ 0.0913 µM)
6 | NC[C@H]1O[C@H](O[C@H]2[C@H](O)[C@@H](O[C@H]3O[C@H](CO)[C@@H](O)[C@H](N)[C@H]3O)[C@H](N)C[C@@H]2N)[C@H](O)[C@@H](O)[C@@H]1O [KANAMYCIN] | 0.13 (≈ 0.268 µM) | 1.62 (≈ 3.34 µM) | 0.014 (≈ 0.0289 µM) | 0.49 (≈ 1.01 µM) | > 30 | > 33 | 0.37 (≈ 0.764 µM) | 1.35 (≈ 2.79 µM) | – | – | – | – | – | – | – | – | – | –
7 | O=C(/C=C\c1ccc(Br)cc1)N1N=C(c2ccncc2)OC1c1c[nH]c2ccccc12 (configuration not stated) | 12.1 (≈ 25.6 µM) | > 256 | 10.4 (≈ 22 µM) | > 256 | 12.8 (≈ 27 µM) | > 256 | 15.2 (≈ 32.1 µM) | > 256 | > 30 | > 30 | > 30 | > 30 | > 30 | > 30 | > 30 | > 30 | > 30 | > 30
8 | O=C(/C=C\c1cccc(Cl)c1Cl)N1N=C(c2ccncc2)OC1c1c[nH]c2ccccc12 (configuration not stated) | 5.99 (≈ 12.9 µM) | 159 (≈ 343 µM) | 6.79 (≈ 14.7 µM) | 198 (≈ 427 µM) | 7.59 (≈ 16.4 µM) | 162 (≈ 349 µM) | 8.39 (≈ 18.1 µM) | 168 (≈ 362 µM) | > 30 | > 30 | > 30 | > 30 | > 30 | > 30 | > 30 | > 30 | > 30 | > 30
9 | O=C(/C=C\c1ccc(O)cc1)N1N=C(c2ccncc2)OC1c1c[nH]c2ccccc12 (configuration not stated) | > 256 | > 256 | 45 (≈ 110 µM) | > 256 | > 256 | > 256 | > 256 | > 256 | > 30 | > 30 | > 30 | > 30 | > 30 | > 30 | > 30 | > 30 | > 30 | > 30
10 | O=C(/C=C/c1c(Cl)cccc1Cl)N1N=C(c2ccncc2)OC1c1c[nH]c2ccccc12 (configuration not stated) | 14.8 (≈ 31.9 µM) | > 256 | 15.6 (≈ 33.6 µM) | > 256 | 86.8 (≈ 187 µM) | 148 (≈ 320 µM) | 19.2 (≈ 41.4 µM) | > 256 | 12.7 (≈ 27.4 µM) | > 30 | 13.7 (≈ 29.6 µM) | > 30 | > 30 | > 30 | > 30 | > 30 | > 30 | > 30
11 | O=C(/C=C\c1ccc(Cl)cc1)N1N=C(c2ccncc2)OC1c1c[nH]c2ccccc12 (configuration not stated) | > 256 | > 256 | > 256 | > 256 | > 256 | > 256 | > 256 | > 256 | > 30 | > 30 | > 30 | > 30 | > 30 | > 30 | > 30 | > 30 | > 30 | > 30
12 | Cc1ccc(/C=C\C(=O)N2N=C(c3ccncc3)OC2c2c[nH]c3ccccc23)cc1 (configuration not stated) | 3.33 (≈ 8.15 µM) | 7.86 (≈ 19.2 µM) | 4.13 (≈ 10.1 µM) | 8.66 (≈ 21.2 µM) | 5.73 (≈ 14 µM) | 9.46 (≈ 23.2 µM) | 6.53 (≈ 16 µM) | 10.3 (≈ 25.1 µM) | > 30 | > 30 | > 30 | > 30 | > 30 | > 30 | > 30 | > 30 | > 30 | > 30
13 | O=C(/C=C\c1ccccc1F)N1N=C(c2ccncc2)OC1c1c[nH]c2ccccc12 (configuration not stated) | 25.6 (≈ 62 µM) | > 256 | 26.4 (≈ 64 µM) | > 256 | 28.8 (≈ 69.8 µM) | 202 (≈ 489 µM) | 32 (≈ 77.5 µM) | > 256 | > 30 | > 30 | > 30 | > 30 | > 30 | > 30 | > 30 | > 30 | > 30 | > 30
14 | O=C(/C=C\c1cccc(Cl)c1)N1N=C(c2ccncc2)OC1c1c[nH]c2ccccc12 (configuration not stated) | 14 (≈ 32.6 µM) | > 256 | 12.1 (≈ 28.3 µM) | > 256 | 14.5 (≈ 33.9 µM) | > 256 | 19.3 (≈ 45 µM) | > 256 | 2.54 (≈ 5.92 µM) | > 30 | > 30 | > 30 | > 30 | > 30 | > 30 | > 30 | > 30 | > 30
15 | CC1(C)S[C@@H]2[C@H](NC(=O)[C@H](N)c3ccccc3)C(=O)N2[C@H]1C(=O)O [AMPICILLIN] | 0.086 (≈ 0.246 µM) | 1.46 (≈ 4.18 µM) | 1.87 (≈ 5.35 µM) | 4.36 (≈ 12.5 µM) | 0.42 (≈ 1.2 µM) | 1 (≈ 2.86 µM) | 3.15 (≈ 9.02 µM) | 10.3 (≈ 29.5 µM) | – | – | – | – | – | – | – | – | – | –
16 | O=C(/C=C\c1ccc(F)cc1)N1N=C(c2ccncc2)OC1c1c[nH]c2ccccc12 (configuration not stated) | 13.6 (≈ 33 µM) | > 256 | 7.33 (≈ 17.8 µM) | > 256 | 12.9 (≈ 31.3 µM) | > 256 | 15.6 (≈ 37.8 µM) | > 256 | > 30 | > 30 | > 30 | > 30 | > 30 | > 30 | > 30 | > 30 | > 30 | > 30
17 | O=C(/C=C\c1ccccc1Cl)N1N=C(c2ccncc2)OC1c1c[nH]c2ccccc12 (configuration not stated) | 1.73 (≈ 4.03 µM) | 27.6 (≈ 64.3 µM) | 2.53 (≈ 5.9 µM) | 25.2 (≈ 58.7 µM) | 3.33 (≈ 7.76 µM) | 29.2 (≈ 68 µM) | 4.13 (≈ 9.63 µM) | 22 (≈ 51.3 µM) | 11.6 (≈ 27.1 µM) | > 30 | > 30 | > 30 | > 30 | > 30 | > 30 | > 30 | > 30 | > 30
18 | O=C(/C=C\c1cccc([N+](=O)[O-])c1)N1N=C(c2ccncc2)OC1c1c[nH]c2ccccc12 (configuration not stated) | 19.2 (≈ 43.7 µM) | 174 (≈ 395 µM) | 20.9 (≈ 47.5 µM) | 55.7 (≈ 127 µM) | 21.7 (≈ 49.3 µM) | 93.2 (≈ 212 µM) | 22.4 (≈ 51 µM) | 86 (≈ 196 µM) | > 30 | > 30 | > 30 | > 30 | > 30 | > 30 | > 30 | > 30 | > 30 | > 30
